These results are taken from patent publication US7148328B2, “Compositions and methods for regulating autolytic processes in bacteria” (Trustees of Dartmouth College, priority 2001, dated 2006).

Holding throughout (type): cell-based, S. aureus
For test [1], the system named is RAT mutant. In words: Plating of antibiotic-treated cultures on agar plates without antibiotic selection (kill). On the procedure:
(§1) RAT plays a role in regulating autolytic activity of S. aureus. […] To evaluate whether the cell lysis of the RAT mutant was additive to the effect of a subinhibitory concentration of penicillin, 200 ng/ml of penicillin was added to a growing culture of the RAT mutant at an OD650 nm of 0.5, corresponding to the mid-log phase. […] This finding is consistent with the additive effect of penicillin upon the lytic propensity of the RAT mutant late in the growth cycle. […] In comparison to the parental strain without antibiotics, the RAT mutant with subinhibitory concentrations of penicillin has a 3–4 log kill.

The test system of a further test is wild-type strain. The test can be described thus: Subinhibitory antibiotic added to growing culture at mid-log phase, optical density followed. To be noted: 200 ng/ml penicillin (subinhibitory) added at OD650 nm of 0.5, mid-log phase, FIG. 1.
Test [2] concerns RAT mutant. The description is as above. To be noted: 200 ng/ml penicillin (subinhibitory) added at OD650 nm of 0.5, mid-log phase, FIG. 1. As to the method: as §1

With penicillin, in the test with RAT mutant [1] (cultures with subinhibitory antibiotic plated on agar without antibiotic selection, compared with parental strain), the “more kill of RAT mutant than the parental strain” value is reported as 1–2 log. Also, the “kill of RAT mutant in comparison to the parental strain without antibiotics” value in the test with RAT mutant [1] (subinhibitory concentrations of penicillin, compared with parental strain without antibiotics) is 3–4 log. Besides, the “change in optical density (growth) after addition of antibiotic” value with wild-type strain was “no increase in optical density”. Further, in the test on RAT mutant [2], the “change in optical density (cell lysis) after addition of antibiotic” value was “further reduction in optical density”.
